One data set deals with NCI 60 cancer cells. As to the kind of experiment: NCI 60 cell five-dose screen. In kind it is cell-based, human. Conditions: NCI 60 cell five-dose screen, FIG. 5. The source says:
FIG. 5 provides the concentrations (nanomole/liter) required to inhibit by 50% growth of cancer cells (GI50) as measured with the National Cancer Institute (NCI) 60 cell five-dose screen assay.
The methodology and data analyses are described in detail at: dtp.cancer.gov/discovery_development/nci-60/methodology.

A short description of data set [1]: Stability in human serum (HPLC). Type of data set: in vitro ADME. As to the method:
4 (370 KBq-740 kBq) in 20 μL 25% EtOH/PB (10 mM PB, pH 6.1) was added to the solution of human serum (1980 μL). The mixture was briefly vortexed and kept up to 19 hours at ambient temperature or in the cell culture incubator (37° C., 5% CO2). At selected times, a 0.5-mL aliquot of the incubated mixture was withdrawn and analyzed by HPLC.
An aliquot of the incubation mixture (0.5 mL) was treated with MeCN (0.5 mL) to precipitate proteins, vortexed and centrifuged (2,000 rpm, 15 minutes). Aliquots of the supernatant (500 μL) were acidified to pH˜6 with 0.05 M TFA (2-8 μL). The excess of MeCN was evaporated with a stream of nitrogen and 100 μL water added. This mixture was passed through a 0.2-μm filter and samples (˜100 μL, 62.5 kBq-130 kBq) were injected on HPLC system.
The HPLC analyses proceeded on Luna C N (5μ, 4.6×250 mm) column. Eluent: solvent A potassium phosphate buffer (10 mM, pH 6.1), solvent B EtOH; all samples were eluted at 0.8 mL/minute, initially with a gradient of EtOH from 30% to 70% for 30 minutes, then from 70% to 95% over the next 15 minutes with detection of radioactivity and UV at 280 nm.

A further data set has as its system BE(2)-C. As to the kind of experiment: Extracellular and intracellular D10 of cells exposed to ^131I-4. Type of data set: cell-based, human. Conditions: exposed for 48 hours. As to the method: (§1) The cell uptake was tested as a function of the radioactive concentration and time of exposure. With each treatment group, triplicate flasks of controls cells in medium without the radioactive drug were grown and harvested alongside treated cells. Aliquots of the radioactive medium were reserved for gamma counting to assess the initial radioactive concentration. Each treatment was tested in triplicate in at least two independent experiments. Groups of treated cells were cultured in radioactive medium for 1 hour, 24 hours, 48 hours, and 72 hours and either harvested at these times or the radioactive medium was removed and replaced with the appropriate nonradioactive medium and then flasks were returned to the incubator for additional 24 hours. Radioactive medium was collected for radioactivity determination, monolayers were washed with ice-cold PBS. Cells used in the subcellular distribution experiments were harvested by scarping and cell numbers were determined. The subcellular distribution of radioactivity was determined as described before using NE-PER™ nuclear and cytoplasmic extraction reagents (Pierce Biotechnology, Rockford, Ill.).
(§2) The cell uptake of ^131I-4 was tested as a function of the radioactive concentration and time of exposure. Groups of treated cells—BE(2)-C (neuroblastoma), SK-N-SH cells (neuroblastoma), and U-87 MG (glioblastoma)—were cultured in radioactive medium for 1 hour, 24 hours, 48 hours, and 72 hours.

Another data set concerns SK-N-SH. Described as above. Type of data set: cell-based, human. Conditions: exposed for 48 hours. As to the method: as §1, §2
Another data set relates to U-87MG. The description is as above. Type of data set: cell-based, human. The following applies: exposed for 48 hours. As to the method:
as §1, §2

A further data set has as its system U-87 MG xenograft. As to the kind of experiment: U-87 MG xenograft therapy study in athymic mice. In kind it is in vivo, athymic Ncr nu/nu mice. As to the method:
(§3) U-87MG cells were injected subcutaneously (SQ) in the dorsal area of the female and male 8-weeks old athymic Ncr nu/nu mice (n=10 per group). When tumor volume reached ˜150 mm^3 mice were randomized into treatment group and “sham” injected control group. The average tumor volumes on day 0 were 177±55 mm^3 and 141±25 mm^3 in the treatment group and untreated controls, respectively. Therapy mice received ^131I-4 at an average dose of 14.5±2.3 MBq/mouse. Tumor volumes and body weights were measured three times per week. When one tumor in control mice exceeded the volume of 3000 mm^3 (i.e., 10% of the body weight), the experiment was terminated. Necropsy was performed. Tumor weights and tumor-associated radioactivity were determined. Blood was collected and hemoglobin and hematocrit values were measured. Tumors sections were also analyzed by macroautoradiography.
U-87MG cells were injected subcutaneously (SQ) in the dorsal area of the female and male 8-weeks old athymic Ncr nu/nu mice (n=10 per group). Therapy mice received ^131I-4 at an average dose of 14.5±2.3 MBq/mouse and tumor volumes and body weights were measured three times per week.

The test system of the next data set is BE(2)-C cells. The data set is described as follows: Colony-forming assay, radiotoxicity of ^131I-radiolabeled drug. Type of data set: cell-based, human. The following applies: for surviving fraction: BE(2)-C. As to the method:
as §1
(§4) Alongside all treatment groups, which included: drug alone (n=4), 4 Gy XRT alone (n=4), and drug+XRT (n=4), quadruplicate flasks of controls cells in medium containing DMSO were grown and harvested under identical culture conditions. Each treatment was tested in at least two independent experiments. The final concentration of DMSO was maintained at 0.5% in all flasks including controls. Cells grown in monolayers (50%-60% confluent) were irradiated at the dose of 4 Gy delivered at the dose rate of 1.36 Gy/minute in a Mark I 68A irradiator (J. L. Shepherd & Associates, San Fernando, Calif.). At designated times after treatment, cells were harvested, their numbers determined and plated at 200 and 500 live cells in duplicate or quadruplicate T25 flasks per each treatment. Cells were left undisturbed for ˜7 days after which time fresh medium was added and colonies were allowed to grow for up to 3 weeks. Colonies were washed with PBS, fixed with methanol, and stained with crystal violet. Briefly, colonies were washed with 5 mL ice-cold PBS, followed by 5 mL PBS/methanol (1:1; v/v), and fixed in 5 mL methanol for 10 minutes. Methanol was removed and flasks were left open to dry for a few hours. Crystal violet (3 mL; 0.25% in 1:1 PBS/methanol) was added to each flask to stain cells. After approximately 10 minutes, the dye was removed, flasks were rinsed with tap water followed by distilled water and were left to dry. Colonies were counted by two independent observers using the ImageJ software.

In another data set the test system is SK-N-SH cells. Described as above. In kind it is cell-based, human. The following applies: for surviving fraction: 0.35 MBq/mL. Here is the method: as §1, §4
Data set [2] deals with SK-N-SH neuroblastoma, BE(2)-C neuroblastoma, and U-87 MG glioblastoma. As to the kind of experiment: Survival of neuroblastoma and glioblastoma cells treated with ^131I-4. The following applies: 0.185 MBq/mL and 0.35 MBq/mL, FIGS. 9A-9C. Type of data set: cell-based, human. As to the method:
FIGS. 9A-9C provide images of SK-N-SH neuroblastoma (FIG. 9A), BE(2)-C neuroblastoma (FIG. 9B), and U-87 MG glioblastoma (FIG. 9C) untreated or treated with compound ^131I-4 at 0.185 MBq/mL and 0.35 MBq/mL. Graphs of the cell uptake and clonogenic survival of the cells are also provided.
The survival of human neuroblastoma and glioblastoma cells either left untreated or treated with compound ^131I-4 at 0.185 MBq/mL and 0.35 MBq/mL was determined. The cell uptake and clonogenic survival of SK-N-SH neuroblastoma, BE(2)-C neuroblastoma, and U-87 MG glioblastoma was also determined (FIGS. 9A-9C).

The nature of data set [3]: Hematocrit and hemoglobin in treated mice. Type of data set: in vivo, athymic Ncr nu/nu mice. The following applies: terminal necropsy after therapy. Here is the method: as §3
The average and median weights of tumor extirpated from untreated control mice (NT) and ^131I-4 treated mice at the terminal necropsy after the therapy was also determined (FIG. 10A). Hematocrit and hemoglobin values in ^131I-4-treated and control (NT) mice were also determined (FIGS. 10B and 10C). FIGS. 10D and 10E also show macroautoradiography of sections of two tumors extirpated.

On to `COC(=O)Nc1nc2ccc(C(=O)c3ccccc3)cc2[nH]1` [Compound 1, methyl N-(6-benzoyl-1H-benzimidazol-2-yl)carbamate], for which the “GI50, concentration to inhibit growth of cancer cells by 50%” value in the data set with NCI 60 cancer cells is “nanomolar levels”.
Take `COC(=O)Nc1nc2cc(C(=O)c3cccc([131I])c3)ccc2[nH]1` [^125I-4, Methyl N-[5-(3′-[^125/131I]iodobenzoyl)-1H-benzimidazol-2-yl]carbamate]: the “stability in human serum, radioactive HPLC trace” value is reported as “exclusively non-degraded” in data set [1] (5 hours, 20° C.) and “exclusively non-degraded” in data set [1] (17 hours, 37° C.). The “stability in human serum” value in [1] (up to 19 hours) is recorded as “stable”.
For the compound `COC(=O)Nc1nc2cc(C(=O)c3cccc([131I])c3)ccc2[nH]1` [^131I-4, Methyl N-[5-(3′-[^125/131I]iodobenzoyl)-1H-benzimidazol-2-yl]carbamate], the D10 extracellular in the data set with BE(2)-C turned out to be 0.176 MBq/mL; with SK-N-SH, 0.410 MBq/mL; with U-87MG, 0.740 MBq/mL. For the same compound, the D10 intracellular with BE(2)-C is 3,010 (395) decays/cell; in the data set on BE(2)-C (value (std err)), 0.36 (0.05) cpm/cell; with SK-N-SH it was 7,620 (530) decays/cell; in the data set on SK-N-SH (value (std err)), 0.82 (0.09) cpm/cell; in the data set on U-87MG it was 14,760 (2,550) decays/cell; with U-87MG (value (std err)), 1.73 (0.34) cpm/cell. In the data set with U-87 MG xenograft (14.5±2.3 MBq/mouse), the “tumor growth compared to untreated control mice” value is recorded as “dramatically decreases tumor growth”. Also, the xenograft volume median was 122 mm^3 in the data set on U-87 MG xenograft (day 0 after treatment); 169 mm^3 with U-87 MG xenograft (day 4 after treatment); 281 mm^3 in the data set on U-87 MG xenograft (day 7 after treatment); 292 mm^3 in the data set on U-87 MG xenograft (day 9 after treatment); 320 mm^3 in the data set with U-87 MG xenograft (day 11 after treatment). Besides, the “xenograft volume avg (std err)” value is 177 (55) mm^3 in the data set with U-87 MG xenograft (day 0 after treatment, 14.5±2.3 MBq/mouse); 251 (88) mm^3 in the data set with U-87 MG xenograft (day 4 after treatment, 14.5±2.3 MBq/mouse); 277 (76) mm^3 in the data set on U-87 MG xenograft (day 7 after treatment, 14.5±2.3 MBq/mouse); 456 (165) mm^3 in the data set with U-87 MG xenograft (day 9 after treatment, 14.5±2.3 MBq/mouse); 444 (163) mm^3 in the data set on U-87 MG xenograft (day 11 after treatment, 14.5±2.3 MBq/mouse). Also, in the data set with U-87 MG xenograft (sections of extirpated tumors), the “tumor infiltration (macroautoradiography)” value was “infiltrates tumors”. The surviving fraction turned out to be 0.51±0.067 in the data set on BE(2)-C cells (24 hour exposure to 0.35 MBq); 0.06±0.02 in the data set on BE(2)-C cells (48 hour exposure to 0.35 MBq); 0.010±0.004 in the data set with BE(2)-C cells (72 hour exposure to 0.29 MBq); 0.68±0.069 with SK-N-SH cells (24 hours); 0.08±0.04 with SK-N-SH cells (48 hours). The survivors result with BE(2)-C cells (at higher concentrations) is given as “no survivors”. In addition, in the data set on SK-N-SH cells (72 hour exposure), the colonies result is on record as “no colonies”. Moreover, the “cytotoxicity, cell survival” value in data set [2] was “cytotoxic to neuroblastoma and glioblastoma cells”. Also, the “adverse reactions in the blood (hematocrit, hemoglobin)” value in data set [3] is listed as “adverse reactions in the blood were not observed”.

(Values after patent US11607464B2, “Compositions and methods for the treatment and imaging of cancer” (BOARD OF REGENTS OF THE UNIVERSITY OF NEBRASKA, priority 2018, dated 2023).)
